Measurements published in PubChem BioAssay (NCI).
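Dose response: 5 concentrations. Exposure: 48 h. Format: 96-well plates. Endpoint: linear interpolation; highest concentration if not reached. Abbreviation: GI50, concentration required for 50% inhibition of growth. TGI is the concentration that stops growth completely.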

Legend:
Experiment in all cases: growth of human tumour cells (NCI), 48 h
[1] = system: HS 578T breast
[2] = system: OVCAR-4 ovarian
[3] = system: NCI-H522 lung
[4] = system: U251 CNS
[5] = system: HCT-116 colon
[6] = system: MDA-MB-435
[7] = system: PC-3 prostate
[8] = system: HOP-62 NSCLC
[9] = system: OVCAR-8 ovarian
[10] = system: SNB-19 CNS

| Compound | GI50 [1] | TGI [1] | GI50 [2] | TGI [2] | GI50 [3] | TGI [3] | GI50 [4] | TGI [4] | GI50 [5] | TGI [5] | GI50 [6] | TGI [6] | GI50 [7] | TGI [7] | GI50 [8] | TGI [8] | GI50 [9] | TGI [9] | GI50 [10] | TGI [10] |
| --- | --- | --- | --- | --- | --- | --- | --- | --- | --- | --- | --- | --- | --- | --- | --- | --- | --- | --- | --- | --- |
| CN(C)CCCn1c(=O)c2ccccc2c2ccccc21 | 17.8 µM | 49 µM | 22.3 µM | 70.5 µM | 12.5 µM | 30.6 µM | 13.8 µM | 78.5 µM | 4.74 µM | > 100 µM | 11.8 µM | 26.6 µM | 18.2 µM | 54.2 µM | 20.5 µM | > 100 µM | 7.03 µM | > 100 µM | 23.3 µM | > 100 µM |
| CC(=O)OC12C=C(C)C(C(C)C1)C1C(=O)N(CCN3CCOCC3)C(=O)C12 (stereo unspecified) | > 100 µM | > 100 µM | > 100 µM | > 100 µM | > 100 µM | > 100 µM | > 100 µM | > 100 µM | > 100 µM | > 100 µM | > 100 µM | > 100 µM | > 100 µM | > 100 µM | > 100 µM | > 100 µM | > 100 µM | > 100 µM | > 100 µM | > 100 µM |
| Cc1cc(S(=O)(=O)/N=C(/N)Nc2ccccc2O)c(SCc2ccccc2)cc1Cl | 21.8 µM | 47.9 µM | 11.4 µM | 34.9 µM | 9.68 µM | 27.1 µM | 14.9 µM | 30.5 µM | 15.1 µM | 31.4 µM | 13.5 µM | 32 µM | 13.9 µM | 32.4 µM | 20.7 µM | 37.3 µM | 12.9 µM | 36 µM | 16.6 µM | 34 µM |
| COc1cc2c(cc1C1COc3cc4occc4cc3C1=O)OCO2 (stereo unspecified) | – | 89.8 µM | – | 36.5 µM | – | > 100 µM | – | > 100 µM | – | > 100 µM | – | > 100 µM | – | > 100 µM | – | > 100 µM | – | > 100 µM | – | > 100 µM |
| COc1ccccc1-c1cc(=O)c2cc(C)cnc2[nH]1 | – | > 100 µM | – | > 100 µM | – | > 100 µM | 27.8 µM | > 100 µM | 42.8 µM | > 100 µM | – | 27.3 µM | 27 µM | > 100 µM | – | > 100 µM | – | > 100 µM | – | > 100 µM |
| C[C@@H]1CN(Cc2ccc(F)cc2)[C@@H](C)CN1C(=O)c1cc2c(C(=O)C(=O)N(C)C)cn(C)c2cc1Cl | 19.8 µM | 62.8 µM | 22.1 µM | > 90.3 µM | 15.8 µM | 43.4 µM | 17.4 µM | 46.1 µM | 21.6 µM | > 71.9 µM | 15 µM | 35.1 µM | 18.9 µM | > 77.7 µM | 18.7 µM | 48.9 µM | 17.6 µM | 48.8 µM | 17.4 µM | 64.1 µM |
| Fc1ccc(/C=N/n2c(-c3ccc(F)c(Cl)c3)nn(CNc3ccccc3C(F)(F)F)c2=S)cc1 | 45.2 µM | > 100 µM | 57.4 µM | > 100 µM | 24.4 µM | 76.3 µM | 69.1 µM | > 100 µM | 55.4 µM | > 100 µM | 43.1 µM | > 100 µM | 37.4 µM | > 100 µM | > 100 µM | > 100 µM | 43.1 µM | > 100 µM | > 100 µM | > 100 µM |
| c1cnn2ncc(-c3ccnc(NCCCN4CCOCC4)n3)c2c1 | 6.2 µM | > 23.1 µM | 11 µM | > 25 µM | 10.6 µM | > 25 µM | 7.18 µM | > 25 µM | 7.25 µM | > 25 µM | 7.56 µM | > 25 µM | 8.71 µM | > 25 µM | 5.76 µM | > 16.6 µM | 7.03 µM | > 25 µM | 8.35 µM | > 25 µM |
| NNC(=O)CS(=O)(=O)Nc1ncccn1 | – | > 100 µM | – | > 100 µM | – | > 100 µM | – | > 100 µM | – | > 100 µM | – | > 100 µM | – | > 100 µM | – | > 100 µM | – | > 100 µM | – | > 100 µM |
| NC(=O)c1csc(C2OC(CO)C(O)C2O)n1 (stereo unspecified) | 77.7 µM | 875 µM | – | 1160 µM | 42.7 µM | 678 µM | 45.5 µM | 2540 µM | – | 6870 µM | 43.7 µM | > 4870 µM | 29.5 µM | 2560 µM | 44.7 µM | 3110 µM | 31.1 µM | 1570 µM | 65.7 µM | 7290 µM |
| CC(C)NCCCn1c(Sc2cc3c(cc2I)OCO3)nc2c(N)ncnc21 | 1.28 µM | > 100 µM | > 33.3 µM | > 100 µM | 0.0588 µM | > 100 µM | 0.128 µM | > 100 µM | 0.0628 µM | > 100 µM | 0.0919 µM | 42 µM | 0.133 µM | > 100 µM | 0.263 µM | > 100 µM | 0.156 µM | > 100 µM | 0.646 µM | > 100 µM |
